# Measurements reported in patent US20020082193A1, “Inhibition of mitochondrial calcium/sodium antiporter” (priority 2000, published 2002).
# Read-outs that look alike come from different tables or passages of the source.
# Legend:
# [1] = target: T1, mitochondrial calcium/sodium antiporter (Rattus norvegicus, UniProt Q6AXS0); assay: Inhibition of mitochondrial calcium/sodium antiporter activity in digitonin-permeabilized INS-1 cells (calcium green 5N); assay type: cell-based
# T1 construct: endogenous in cells; host or cells: INS-1 rat insulinoma cells, digitonin-permeabilized
# T1 sequence (Q6AXS0 27-585): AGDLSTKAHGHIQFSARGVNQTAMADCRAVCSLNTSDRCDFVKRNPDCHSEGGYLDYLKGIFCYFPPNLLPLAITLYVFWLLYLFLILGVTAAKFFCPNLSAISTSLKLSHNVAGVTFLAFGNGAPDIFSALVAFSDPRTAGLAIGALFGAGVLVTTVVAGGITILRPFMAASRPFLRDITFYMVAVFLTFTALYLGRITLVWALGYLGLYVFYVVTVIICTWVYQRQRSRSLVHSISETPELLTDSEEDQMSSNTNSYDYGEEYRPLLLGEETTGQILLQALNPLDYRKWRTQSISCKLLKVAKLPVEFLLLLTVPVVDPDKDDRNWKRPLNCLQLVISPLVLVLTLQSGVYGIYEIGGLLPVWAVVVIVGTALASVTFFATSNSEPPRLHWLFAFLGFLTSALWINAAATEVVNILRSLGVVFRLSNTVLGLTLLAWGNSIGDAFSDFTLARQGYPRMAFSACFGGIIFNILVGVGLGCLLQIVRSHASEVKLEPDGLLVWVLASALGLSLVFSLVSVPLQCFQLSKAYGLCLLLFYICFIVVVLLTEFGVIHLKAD
# Method: INS-1 rat insulinoma cells (see Example 3) were harvested by trypsinization, washed and resuspended at 10×10^6 cells/ml in assay buffer (250 mM sucrose, 10 mM HEPES, 2.5 mM K2HPO4, 5 mM succinate, pH 7.4) containing 0.007% digitonin, 60 μM CaCl2 and 0.05 μM calcium green 5N (Molecular Probes, Inc., Eugene, OR). After a five minute calcium loading incubation, ruthenium red (1 μM; Sigma, St. Louis, MO) was added to block further calcium uptake by mitochondria. Cell suspensions were dispensed into 96-well plates (100 μl per well, 1×10^6 cells per well) and candidate agents (i.e., candidate mitochondrial calcium/sodium antiporter inhibitors) were added to some sets of triplicate wells at concentrations of 1, 10 or 100 μM, while other sets of wells provided appropriate control conditions (e.g., buffer and vehicle controls). Baseline fluorescence measurements were made using a multiwell plate fluorimeter (F-MAX™, Molecular Devices Corp., Sunnyvale, Calif.; or PolarStar , BMG Labtechnologies, Inc., Durham, N.C.) according to the manufacturer's instructions. Calcium efflux from mitochondria was then induced by adding NaCl to all wells to achieve a final concentration of 20 mM, and the rate of change in fluorescence in each well was monitored was monitored for two minutes and quantified using software included with the plate reader.
# [2] = tested on: mitochondrial calcium/sodium antiporter (MCA) from beef heart mitochondria; assay: Sodium-calcium exchange in proteoliposomes reconstituted with affinity isolated MCA; assay type: biochemical; details: 100 μM calcium chloride, FIG. 8
# Method: From a separate preparation of beef heart mitochondria, affinity isolation of the MCA was performed as just described, except that 1% CHAPS was substituted for 1% Triton X-100 in the initial solubilization, and following the column wash steps, retained components (including proteins bound to the affinity matrix) were eluted with 50 mM diltiazem. The column eluate containing proteins was incorporated into proteoliposomes essentially as described by Li et al (1992 J. Biol. Chem. 267: 17983-17989), using Calcium Green SN as the internal fluorescent probe (Molecular Probes, Eugene, OR), and calcium transport activity of the MCA was measured essentially as described by Li et al. (1992). Briefly, calcium chloride (100 μM) was added to a suspension of Calcium Green 5N-loaded proteoliposomes to initiate sodium-calcium exchange, which was measured as an increase in fluorescence as the calcium entered the vesicles that contained Calcium Green 5N. […] Data points in FIG. 8 represent average values at each concentration from two independent experiments.
# [3] = tested on: rat pancreatic islet cells; assay: Insulin secretion by rat pancreatic islet cells, 5 mM or 8 mM glucose (FIG. 3); assay type: cell-based; details: various concentrations
# [4] = tested on: INS-1 rat insulinoma cells; assay: Insulin secretion by INS-1 cells, basal or 8 mM glucose (radioimmunoassay); assay type: cell-based; details: 15, 30 or 60 minutes, FIG. 2
# Method: INS-1 rat insulinoma cells were provided by Prof. Claes Wollheim, , Geneva, Switzerland, and cultured at 37° C. in a humidified […] (Gibco BRL, Gaithersburg, Md.) fetal bovine serum (Irvine Scientific, Irvine, Calif.), 2 mM […], 100 U/ml streptomycin, 10 mM HEPES, 1 mM sodium pyruvate and 50 μM β-mercaptoethanol (all reagents Sigma, St. Louis, Mo., unless otherwise noted).
# INS-1 cells were seeded into 24-well plates containing RPMI media supplemented at 0.5×10^6 cells/well and cultured at 37° C., 5% CO2 for 2 days. Cells at or near confluence (0.7×10^6cells/well) were rinsed with glucose-free KRH buffer (134 mM NaCl, 4.7 mM KCl, 1.2 mM KH2PO4, 1.2 mM MgSO4, 1.0 mM CaCl2, 10 mM HEPES-ph 7.4, 25 mM NaHCO3, 0.5% BSA), then incubated in the same buffer for 1 hr at 37° C. in a humidified 5% CO2/95% air atmosphere. […] Insulin concentrations in the supernatants were measured and normalized to cell number using an insulin-specific radioimmunoassay kit (ICN Biochemicals, Irvine, Calif.) according to the manufacturer's instructions. […]
# [5] = target: T2, mitochondrial Na+/Ca2+ exchanger (Rattus norvegicus, UniProt Q6AXS0); assay: Na+-induced Ca2+ release from rat heart mitochondria, Ca2+-selective electrode; assay type: biochemical; details: 20 μM compound
# T2 construct: Rat heart mitochondria were isolated using a modified differential centrifugation protocol; from tissue; host or cells: rat heart mitochondria
# T2 sequence (Q6AXS0 27-585): T1 sequence (Q6AXS0 27-585)
# Method: (§1) Rat heart mitochondria were isolated using a modified differential centrifugation protocol essentially as described by Sordahl (Methods in Studying Cardiac Membranes (1984), pp 65-74). Experiments to assess effects on transmitochondrial membrane transport of calcium were carried out at 25° C. in a buffer consisting of 250 mM sucrose, 10 mM HEPES (pH 7.4), 5 mM Pi, 5 mM succinate, 1 μM rotenone, supplemented with 1 μM cyclosporine A to prevent interference from the Ca^2+-dependent permeability transition pore (PTP). Ca^2+ uptake and release were measured using a Ca^2+-selective electrode in a custom-constructed chamber additionally equipped for monitoring mitochondrial swelling via changes in light scattering (World Precision Instruments, Inc., Sarasota, Fla.). Alternatively, Ca^2+ fluxes were followed fluorometrically using the Calcium Green 5N™ indicator according to the supplier's recommendations (Molecular Probes, Eugene, Oreg.).
# (§2) Mitochondria (0.5 mg/ml) that were energized by the presence of succinate accumulated endogenous Ca^2+ from the medium (trace calcium from water source). Additional Ca^2+ (20 μM ) was added to the reaction buffer 2-3 minutes following commencement of measurements with the calcium electrode. […] No PTP activation (swelling) was detected under experimental conditions used.
# [6] = tested on: pancreatic islets of Langerhans; assay: Glucose-stimulated insulin secretion (GSIS) by isolated rat islets, insulin ELISA; assay type: cell-based, Sprague-Dawley rats; details: 1 μM compound
# Method: Pancreatic islets of Langerhans were isolated from adult male Sprague-Dawley rats using a standard collagenase infusion and digestion procedure as described in Example 5. Islets were cultured at 37° C. for 1-2 days in CMRL-1066 medium supplemented with 5.5 mM glucose, 10% fetal bovine serum, 100 U/ml penicillin and 100 μg/ml streptomycin, in a humidified atmosphere containing 5% CO2. Islets were manually picked and washed in Krebs Ringer Bicarbonate buffer (KRB: 134 mM NaCl, 4.7 mM KCl, 1.2 mM KH2PO4, 1.2 mM MgSO4, 1 mM CaCl2, 10 mM NaHCO3, pH 7.4) in preparation for measurement of glucose-stimulated insulin secretion (GSIS). Aliquots of washed islets were preincubated in oxygenated KRB supplemented with 16 mM HEPES, 0.01% fetal bovine serum and 5.5 mM glucose for 60 min at 37° C. […] Cell-conditioned media samples were then collected by centrifugation and their insulin content was determined using enzyme-linked immunosorbent assay (ELISA) kits (CrystalChem or ALPCO rat insulin ELISA) according to the kit supplier's instructions. Following treatment with a preferred compound, the concentration of insulin detected in the islet-conditioned medium was at least 1.5 times the insulin concentration detected in the medium conditioned by islets that were exposed to 8 mM glucose. […]
# [7] = target: T2, mitochondrial Na+/Ca2+ exchanger; assay: Na+-induced Ca2+ release from mitochondria, Calcium Green 5N fluorescence; assay type: biochemical
# Method: as §1, §2
structure (smiles),measurement,setting,value
Cc1ccc(C2SCC(=O)Nc3ccc(Cl)cc32)c(C)c1 (stereo not drawn) [compound 21],IC50,[1],< 100 µM
"O=C1CSC(c2ccccc2Cl)c2cc(Cl)ccc2N1 (stereo not drawn) [Compound No. 1, 7-chloro-5-(2-chlorophenyl)-1,5-dihydro-4,1-benzothiazepin-2-one]",inhibition of sodium-calcium exchange activity,[2],inhibited in a dose-dependent fashion
same,glucose stimulated insulin secretion by rat islets,[3],enhancement
same,glucose stimulated insulin secretion by INS-1 cells,[4],enhanced
same,inhibition at 20 µM,[5],~50%
same,inhibition of Na+-induced rapid Ca2+ release,[5]; FIG. 4,inhibited completely
same,stimulation of GSIS relative to GSIS detected with 8 mM glucose,[6],222 (±48) %
O=C1C[S+]([O-])C(c2ccccc2Cl)c2cc(Cl)ccc2N1 (stereo not drawn) [Compound No. 24],IC50,"[1]; permeabilized INS-1 cells, 20 mM NaCl-induced calcium efflux, read-out: IC50, MCA inhibition",< 100 µM
same,stimulation of GSIS relative to GSIS detected with 8 mM glucose,[6],178%
O=C(O)CN1C(=O)CSC(c2ccccc2Cl)c2cc(Cl)ccc21 (stereo not drawn) [Compound No. 2],concentrations at which inhibition was observed,[7],≥ 100 µM
O=C1CSC(c2ccccc2Cl)c2ccccc2N1 (stereo not drawn) [compound 23],IC50,[1],< 100 µM
Cc1ccccc1C1OCC(=O)Nc2ccc(Cl)cc21 (stereo not drawn) [compound 10],IC50,[1],< 100 µM
